pIC50: −log10 of the molar value. Values after ≈ are worked out from the molar mass of the structure shown. Where two headings read alike, the source gives them in different places. No end group written: not given here. Bounds are passed on as bounds.

Series [1] concerns Enterobacter cloacae RKI 146/09. Briefly: microbe, parasite or virus in culture. Format: cell-based. The method, then: (§1) The strains that were used in this study (Table 2 and Table S1) were cultivated at 37 °C in cation-adjusted Mueller–Hinton broth (CAMB) in Erlenmeyer flasks, or on the same medium with agar in Petri dishes. Exceptionally, Mycobacterium smegmatis was cultivated at 37 °C in brain heart infusion (BHI) medium that was supplemented with 1% Tween-80 in Erlenmeyer flasks, or on the same medium lacking detergent but with agar in Petri dishes. Strains listed with Robert Koch Institute (RKI) strain numbers are clinical isolates from the RKI strain collection originating from hospitalized patients in Germany. The remaining strains originated from the Sanofi strain collection and they were originally purchased from the American Type Culture Collection or the German Collection of Microorganisms and Cell Cultures. Meropenem/colistin-resistant strains were maintained, as described above, with the appropriate antibiotic added at levels below the minimal inhibitory concentration (MIC).
(§2) The MIC values were determined in 384-well microtiter plates with an assay volume of 20 µL. Immediately before each assay, the cultures of test organisms (bacteria grown for 18 h, Candida albicans and M. smegmatis grown for 48 h) were diluted with the appropriate medium to a density of 1 × 10^6 cells/mL (C. albicans), 1 × 10^5 cells/mL (M. smegmatis) or 5 × 10^5 cells per mL (other species). […] We transferred 2-µL aliquots from this dilution series to new 384-well microtiter plates while using a CyBio-Well 384-channel automated pipettor (Analytic Jena, Jena, Germany) and added 18 µL of the diluted suspension of each test species using a Viafill reagent dispenser (Integra), thus reducing the final peptide concentration 10-fold to the range 1024–0.03125 µg/mL. […] The growth of M. smegmatis was measured using the BacTiter-Glo luminescence test system (Promega, Madison, WI, USA). The growth of the other species was determined by visual inspection of the microtiter plate and turbidimetry based on the optical density at 600 nm (OD600). The MIC was defined as the peptide concentration at which no bacterial growth was observed. We supplemented the test medium with either 150 mM NaCl or 1.25 mM CaCl2 to represent monovalent and divalent cations to simulate physiological conditions.

A further series has as its system A. baumannii RKI 19/09. Briefly: microbe, parasite or virus in culture. It is filed as cell-based, Acinetobacter baumannii. The method, then:
as §1, §2

Series [2] concerns Klebsiella oxytoca RKI 52/07. It is filed as cell-based. In short, it runs like this: (§3)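 Broth microdilution in cation-adjusted Mueller–Hinton broth at 37 °C, with 18 h cultures diluted to 5 × 10^5 cells/mL and final peptide concentrations of 1024–0.03125 µg/mL. Growth was scored visually and by OD600. MIC is the lowest concentration with no growth; medium was optionally supplemented with 150 mM NaCl or 1.25 mM CaCl2.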

For another series, the system named is E. coli RKI 131/08. Description: microbe, parasite or virus in culture. Format: cell-based, Escherichia coli. How it is done: as §1, §2
The subject of the next series is S. aureus ATCC 33592. Format: cell-based, Staphylococcus aureus. In short, it runs like this: as §3
Series [3] concerns Acinetobacter baumannii ATCC 19606. Format: cell-based. In short, it runs like this:
as §3

Series [4] concerns Pseudomonas aeruginosa ATCC 27853. Format: cell-based. The gist of the method: as §3
Series [5] deals with Klebsiella pneumoniae DSM 30104. Format: cell-based. The gist of the method: as §3
In series [6] the test system is Staphylococcus aureus ATCC 25923. It is filed as cell-based. The gist of the method: as §3
The next series deals with Escherichia coli D31. Format: cell-based. In short, it runs like this:
as §3

For another series, the system named is HepG2 cells. Description: Cytotoxicity (ATP quantification and neutral red uptake). How it is done:
The cytotoxicity of the AMPs was determined in 96-well microtiter plates with an assay volume of 200 µL. The peptides were dissolved in PBS and a 1:2 dilution series in DMEM-F12 medium (supplemented with 1% nonessential amino acids, 1% sodium pyruvate, and 5% heat-inactivated fetal calf serum) was prepared in nine steps to produce test concentrations of 400, 200, 100, […], 12.5, 6.25, 3.13, and 1.56 μM (1655–6.46 µg/mL for EtCec1-a, 1713–6.68 µg/mL for EtCec2-a, 1622–6.33 µg/mL for EtCec3-a, 2661–10.38 µg/mL for EtDip). Stocks of the mycoplasma-free HepG2 cell line HB-8065 (ATCC) stored in liquid nitrogen were seeded at a density of 20,000 cells/well into 96-well microplates in 100 μL DMEM-F12 supplemented as above. After incubation overnight at 37 ± 1 °C in a 5% CO2 atmosphere, 100 μL of the test solution was added per well in six replicates. Ketoconazole was used as a positive control and PBS as a negative control. The plates were incubated for 24 h, as above, and the cell viability was assessed using the luminescent CellTiter-Glo ATP monitoring kit (Promega) to determine the quantity of ATP.
HepG2 cells and peptides were prepared as described above, and cell viability was assessed based on the ability of lysosomes to store the dye neutral red (Sigma–Aldrich, ST. Louis, MO, USA). The cells were incubated for 3 h with a neutral red solution, washed twice, and lysed. After complete lysis, the quantity of neutral red was determined by measuring the absorption at 540 nm while using a Tecan Genios Pro plate reader.

For series [7], the target named is human ERG (hERG) potassium channel (Homo sapiens, UniProt Q12809). Briefly: cell-based. The method, then: The interaction of the peptides with the human ERG (hERG) potassium channel was analyzed using the automated patch-clamp method. Chinese hamster ovary (CHO) hERG Duo cells constitutively expressing hERG (B’SYS) were diluted to 8 × 10^6 cells/mL in Ex-Cell CHO medium (Sigma–Aldrich) containing 25 mM HEPES, 100 U/mL penicillin-streptomycin, and 0.004% soybean trypsin inhibitor. The peptides were diluted from a stock concentration of 10 mM in DMSO to final concentrations of 0.12, 0.37, 1.1, 3.3, 10, and 30 μM (0.5–124 µg/mL for […], 0.51–128 µg/mL for EtCec2-a, 0.49–122 µg/mL for EtCec3-a, 0.8–200 µg/mL for EtDip) in extracellular medium (150 mM NaCl, 4 mM KCl, 2 mM CaCl2, 1 mM MgCl2, 10 mM HEPES, 10 mM glucose) containing 0.06% Pluronic F-68 and 0.3% residual DMSO. The response of hERG to each peptide was assessed while using a QPatch HTX station and QPlates (Sophion/Biolin Scientific, Ballerup, Denmark) by recording the tail current following channel repolarization. Half-maximal inhibitory concentrations (IC50) were determined from a series of six concentrations applied to the cells in ascending order. Terfenadine citrate was used as a positive control and extracellular medium as a negative control.

Setting [8] is: CAMB + 0.075 µg/mL colistin (Col), n=3.
The mark [9] stands for this setting: CAMB adjusted to 150 mM NaCl, n=3.
[10] abbreviates: HepG2, 24 h, cell viability >80%.

Chain of human ERG (hERG) potassium channel (Q12809 whole entry): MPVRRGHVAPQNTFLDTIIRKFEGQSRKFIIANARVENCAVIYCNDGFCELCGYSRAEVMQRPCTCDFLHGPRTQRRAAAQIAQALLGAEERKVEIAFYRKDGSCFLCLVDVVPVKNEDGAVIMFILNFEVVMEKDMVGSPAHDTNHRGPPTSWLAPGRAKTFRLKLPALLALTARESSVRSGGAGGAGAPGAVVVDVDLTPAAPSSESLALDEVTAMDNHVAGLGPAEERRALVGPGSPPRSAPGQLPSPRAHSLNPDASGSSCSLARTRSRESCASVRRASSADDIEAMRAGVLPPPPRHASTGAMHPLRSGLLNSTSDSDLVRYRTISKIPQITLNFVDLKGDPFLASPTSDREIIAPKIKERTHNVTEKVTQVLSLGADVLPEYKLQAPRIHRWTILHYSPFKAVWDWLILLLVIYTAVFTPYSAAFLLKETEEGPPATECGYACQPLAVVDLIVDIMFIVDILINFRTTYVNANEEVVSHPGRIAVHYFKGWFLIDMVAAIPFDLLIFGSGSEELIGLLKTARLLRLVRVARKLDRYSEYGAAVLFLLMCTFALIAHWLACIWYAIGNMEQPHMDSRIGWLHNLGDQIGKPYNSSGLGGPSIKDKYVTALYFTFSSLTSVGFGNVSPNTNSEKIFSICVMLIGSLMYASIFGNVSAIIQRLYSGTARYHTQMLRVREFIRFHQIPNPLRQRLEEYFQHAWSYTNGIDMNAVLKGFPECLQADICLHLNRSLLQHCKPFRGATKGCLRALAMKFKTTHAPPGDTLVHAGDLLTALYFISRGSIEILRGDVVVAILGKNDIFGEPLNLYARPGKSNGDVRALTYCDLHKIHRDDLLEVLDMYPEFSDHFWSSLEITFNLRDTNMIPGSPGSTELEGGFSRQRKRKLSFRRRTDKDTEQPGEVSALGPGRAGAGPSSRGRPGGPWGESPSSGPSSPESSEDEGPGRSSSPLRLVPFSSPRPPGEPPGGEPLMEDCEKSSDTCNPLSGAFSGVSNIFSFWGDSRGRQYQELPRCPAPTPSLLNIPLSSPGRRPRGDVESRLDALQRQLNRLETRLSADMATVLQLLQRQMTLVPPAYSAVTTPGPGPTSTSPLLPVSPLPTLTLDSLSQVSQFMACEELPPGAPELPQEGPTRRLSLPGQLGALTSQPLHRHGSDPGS

Consider `C[C@@H](O)[C@H]1C(=O)N2C(C(=O)O)=C(S[C@@H]3CN[C@H](C(=O)N(C)C)C3)[C@H](C)[C@H]12` [MEM, meropenem], for which the MIC in series [1] (Enterobacter cloacae, RKI146/09) was 16 µg/mL (≈ 41.7 µM); in the series on A. baumannii RKI 19/09 (Acinetobacter baumannii, RKI19/09, Table S1, RKI 19/09, read-out: MIC), more than 64 µg/mL; in [2] (Table S1, RKI 52/07) it was 32 µg/mL (≈ 83.4 µM); in the series on E. coli RKI 131/08 (Escherichia coli, RKI131/08) it was 32 µg/mL (≈ 83.4 µM).
For “GFLKKIGKKLEGAVQRTRDATIQTIAVAQAAANVAATAKQ-NH2 [EtCec1-NH2]”, the MIC in the series with S. aureus ATCC 33592 (ATCC 33592, 18 h) is more than 1024 µg/mL; against A. baumannii RKI 19/09 (RKI 19/09, 18 h), 4 µg/mL; in [3] (ATCC 19606, 18 h) it was 8 µg/mL; in [4] (ATCC 27853, 18 h) it was 32 µg/mL; in [5] (DSM 30104, 18 h), 4 µg/mL; in [6] (ATCC 25923, 18 h), more than 1024 µg/mL. In addition, the MIC in the series with Escherichia coli D31 (D31, 18 h) worked out at 4 µg/mL; against E. coli RKI 131/08 (RKI 131/08, 18 h), 4 µg/mL. In addition, in the series on HepG2 cells, the NOEC entry is on record as “greater than 1655 µg/mL”. The compound further showed a pIC50 in [7] of less than 4.52.
For “GWLRDFGKRIERTGQNIRDATIQTIGIAQEAANVAATLK-NH2 [EtCec2-NH2]”, the MIC with S. aureus ATCC 33592 (CAMB, 18 h, 37 °C, n = 4) is more than 1024 µg/mL; in [1] (setting [8]), 32 µg/mL; in series [1] (setting [9]) it was 64 µg/mL; in series [1] (Table 4, CAMB, n=3) it was 32 µg/mL; with A. baumannii RKI 19/09 (setting [8]), 8 µg/mL; in the series with A. baumannii RKI 19/09 (setting [9]), 16 µg/mL. For the same compound, the MIC in the series on A. baumannii RKI 19/09 (Table 4, CAMB, n=3) worked out at 8 µg/mL; in series [2] (setting [8]), 2 µg/mL; in [2] (Table 5, CAMB, n=3), 32 µg/mL; in [3] (setting [8]) it was 8 µg/mL; in [3] (setting [9]), 8 µg/mL; in series [3] (CAMB, 18 h, 37 °C, n = 4), 8 µg/mL. The MIC in series [3] (Table 4, CAMB, n=3) is recorded as 8 µg/mL; in series [4] (CAMB, 18 h, 37 °C, n = 4), more than 1024 µg/mL; in [5] (setting [8]) it was 2 µg/mL; in series [5] (setting [9]) it was 32 µg/mL; in series [5] (CAMB, 18 h, 37 °C, n = 4), 16 µg/mL; in series [5] (Table 4, CAMB, n=3) it was 16 µg/mL. Besides, the MIC is recorded as more than 1024 µg/mL in series [6] (CAMB, 18 h, 37 °C, n = 4); 4 µg/mL against Escherichia coli D31 (CAMB, 18 h, 37 °C, n = 4); 2 µg/mL with E. coli RKI 131/08 (setting [8]); 16 µg/mL in the series on E. coli RKI 131/08 (setting [9]); 16 µg/mL in the series on E. coli RKI 131/08 (Table 4, CAMB, n=3). This compound also returned an NOEC with HepG2 cells (setting [10]) of 535 µg/mL. Further, the pIC50 in series [7] is less than 4.52.
With “QFNMQGGGSPRQGFDVNANARFPIWQSQNARNSVHGTASYAQHLGGPYGNSRPNFGGGLQFT [EtDip, diptericin-like peptide of Eristalis tenax]”, the MIC was more than 1024 µg/mL in the series on S. aureus ATCC 33592 (CAMB, 18 h, 37 °C, n = 4); more than 1024 µg/mL in series [1] (setting [8]); more than 1024 µg/mL in [1] (Table 5, CAMB, n=3); 1024 µg/mL in the series with A. baumannii RKI 19/09 (setting [8]); more than 1024 µg/mL in the series on A. baumannii RKI 19/09 (Table 5, CAMB, n=3); 4 µg/mL in series [2] (setting [8]). Also, the MIC in series [2] (Table 5, CAMB, n=3) is more than 1024 µg/mL; in [3] (setting [8]) it was more than 1024 µg/mL; in series [3] (CAMB, 18 h, 37 °C, n = 4), more than 1024 µg/mL; in series [3] (Table 5, CAMB, n=3), more than 1024 µg/mL; in series [4] (CAMB, 18 h, 37 °C, n = 4), more than 1024 µg/mL; in [5] (setting [8]), 4 µg/mL. The MIC in [5] (CAMB, 18 h, 37 °C, n = 4) is listed as more than 1024 µg/mL; in [5] (Table 5, CAMB, n=3), more than 1024 µg/mL; in series [6] (CAMB, 18 h, 37 °C, n = 4) it was more than 1024 µg/mL; in the series on Escherichia coli D31 (CAMB, 18 h, 37 °C, n = 4), more than 1024 µg/mL; in the series with E. coli RKI 131/08 (setting [8]), 4 µg/mL; with E. coli RKI 131/08 (Table 5, CAMB, n=3) it was more than 1024 µg/mL. In addition, the NOEC in the series on HepG2 cells (setting [10]) is on record as more than 1330 µg/mL. The “IC50 hERG” value in [7] (CHO hERG Duo cells, QPatch, tail current, six concentrations) was more than 200 µg/mL.

The term pIC50 denotes the negative decadic logarithm of the IC50, by convention in mol/L. Low readings indicate a high IC50, high ones a low IC50.

The values above are taken from paper PMC7284870, “Antimicrobial Peptides from Rat-Tailed Maggots of the Drone Fly Eristalis tenax Show Potent Activity against Multidrug-Resistant Gram-Negative Bacteria” (Microorganisms, 2020).
